Measured values from publication PMC11554305, “Functional identification of soluble uric acid as an endogenous inhibitor of CD38” (eLife, 2024).

Columns and labels:
CD38 = experiment: Hydrolase and cyclase activities of human and murine CD38; type: biochemical
Description: (§1) The hydrolase activity of CD38 was measured according to a previous report ([de Oliveira et al., 2018]) with minor modifications. CD38 hydrolase activity was measured using 50 μM ε-NAD^+ as a substrate in hydrolase reaction buffer (250 mM sucrose, 40 mM Tris-HCl, pH 7.4). Briefly, cells or tissues were directly homogenized in blank reaction buffer on ice, and recombinant hCD38 was diluted in blank reaction buffer for subsequent assays. The tissue homogenates were centrifuged to collect the supernatant for enzyme assays. The loading volume of enzyme was 4–30 μL, the total volume of the reaction system was 3 mL. To detect enzyme inhibition, except when specified, the ligands were directly dissolved in hydrolase reaction buffer before pH adjustment, after which, the pH was immediately adjusted to 7.4. All reaction buffers, with or without ligands, were freshly prepared before each assay. For measurement of hydrolase activity, 3 mL reaction buffer containing enzyme, ε-NAD^+, and ligands at indicated concentrations was maintained at 37°C with constant stirring.
(§2) The cyclase activity of CD38 was measured as previously described ([Higashida et al., 1999]; [Jin et al., 2007]). CD38 cyclase activity was measured using 60 μM NGD as a substrate in cyclase reaction buffer (100 mM KCl, 10 μM CaCl2, and 50 mM Tris-HCl, pH 6.6). Tissues were cut into pieces and suspended in the buffer (5 mM MgCl2, 10 mM Tris-HCl, pH 7.3) at 4°C for 30 min. Then, the suspension was homogenized on ice, and the supernatant was collected after centrifugation. To collect the crude membrane fractions, the supernatant was centrifuged at 105,000×g for 30 min. The final pellet was resuspended in 10 mM Tris-HCl solution (pH 6.6) for cyclase assay. Homogenates of THP-1 or A549 cells, and recombinant hCD38 were used directly for cyclase assays. The loading volume of enzyme was 4–20 μL, the total volume of reaction system was 3 mL. To detect enzyme inhibition, except when specified, the ligands were directly dissolved in cyclase reaction buffer before pH adjustment, after which, the pH was immediately adjusted to 6.6. All reaction buffers, with or without ligands, were freshly prepared before each assay. For measurement of cyclase activity, 3 mL reaction buffer containing enzyme, NGD, and ligands at indicated concentrations was maintained at 37°C with constant stirring.
(§3) The reaction buffer for hydrolase or cyclase assays was excited at 300 nm, and fluorescence emission was measured every second at 410 nm by Shimazu RF-6000 spectrofluorometer. Hydrolase or cyclase activity was calculated from the linear portion of the time course by fitting a linear function to the data points recorded within 5 min.
Guanosine was dissolved in DMSO and diluted in the reaction buffer for subsequent assays.
For reversibility test, recombinant hCD38 was pre-incubated for 30 min in four conditions: (1) control reaction buffer; (2) in the presence of 100 μM substrate (ε-NAD^+ or NGD); (3) 500 μM sUA; (4) both substrate and sUA. Subsequently, the enzyme was diluted 100-fold in reaction buffer in the presence or absence of 500 μM sUA for activity assays using ε-NAD^+ or NGD. Naïve THP-1 and A549 cells were incubated with RPMI-1640 medium in the presence or absence of 500 μM sUA for 2 hr. The cells were collected and homogenized in the reaction buffer on ice with or without 500 μM sUA, samples were then diluted 100-fold in reaction buffer with or without 500 μM sUA for enzyme assay. Control group was not treated with sUA in all steps; sUA group was treated with sUA in each step; sUA release group was treated with sUA prior to dilution in sUA-free buffer for enzyme assays.

murine CD38 [1] = target: T1, murine CD38 (Mus musculus, UniProt P56528); experiment: CD38 hydrolase activity in tissues from WT mice; type: biochemical; conditions: for Ki: WT mice, Figure 1E
T1 construct: from tissue; host or cells: WT ICR mouse tissues (brain, liver, lung, heart, kidney, spleen, ileum, skeletal muscle)
T1 sequence (P56528 1-304): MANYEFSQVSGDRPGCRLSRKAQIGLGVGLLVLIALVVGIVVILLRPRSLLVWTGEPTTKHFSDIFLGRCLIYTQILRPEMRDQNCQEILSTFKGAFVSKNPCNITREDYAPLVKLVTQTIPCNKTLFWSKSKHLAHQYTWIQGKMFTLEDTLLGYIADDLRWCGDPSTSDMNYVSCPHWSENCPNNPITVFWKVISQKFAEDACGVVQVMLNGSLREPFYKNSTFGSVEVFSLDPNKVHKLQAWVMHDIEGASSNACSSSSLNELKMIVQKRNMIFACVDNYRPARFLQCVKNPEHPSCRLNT
Description: as §1, §3

murine CD38 [2] = target: T1, murine CD38; experiment: CD38 cyclase activity in tissues from WT mice; type: biochemical; conditions: for Ki: WT mice, Figure 1E
Description: as §2, §3

WT BMDMs = experiment: Intracellular NAD+ in primed WT BMDMs treated with NMN; type: cell-based, mouse; conditions: sUA 100, 200 and 500 μM; NMN 100 μM, 6 hr
Description: Bone marrow cells were isolated from 10- to 12-week-old WT or CD38 KO mice (both male and female) by washing the marrow cavity with sterile PBS. The collected bone marrow cells were filtered by 70 μm strainers and then centrifuged at 1000 rpm, 4°C for 5 min. The cell pellet was resuspended in 2 mL red blood cell (RBC) lysis buffer for 30 s, then 8 mL complete RPMI-1640 medium (10% FBS, 1% penicillin/streptomycin, and 50 μM 2-mercaptoethanol) was added to terminate the lysis. After 5 min centrifugation at 1000 rpm, 4°C, the cells were resuspended in fresh complete RPMI-1640 medium and maintained for 4 hr in an incubator. Adherent cells were discarded, whereas non-adherent cells were cultured in complete RPMI-1640 medium containing 20 ng/mL M-CSF. After 3-day differentiation, the medium was replaced with fresh complete RPMI-1640 medium containing 20 ng/mL M-CSF. On the 7th day, BMDMs were collected for subsequent experiments. BMDMs were primed with 100 ng/mL ultrapure LPS for 4 hr for canonical inflammasome assay. For metabolic assay of NMN, BMDMs were primed with 100 ng/mL ultrapure LPS for 8 hr to induce higher protein expression of CD38.
WT BMDMs were primed with 100 ng/mL ultrapure LPS for 8 hr. Then, the cells were washed twice with sterile PBS. Afterward, the cells were incubated in control or 100 μM NMN-supplemented RPMI-1640 medium in the presence of sUA or 78c. […]

neutrophils = tested on: neutrophils; set-up: method as in Ma et al., 2022; conditions: sUA 595 μM; ref Ma et al., 2022; cited from earlier work
[3] = lung tissues from WT mice, OA 0–5 mM

## O=c1[nH]cnc2c1ncn2[C@@H]1O[C@H](CO)[C@@H](O)[C@H]1O [Inosine, inosine, reference compound]
CD38; sUA precursors and metabolite, above physiological levels, Figure 2B, C and supplement 1A–C
  Effect on hydrolase and cyclase activities of human and murine CD38: hardly inhibited

## O=c1[nH]c(=O)c2[nH]c(=O)[nH]c2[nH]1 [sUA, uric acid]
Murine CD38 [1]; Brain
  Ki: 83.5 µM
Murine CD38 [1]; Heart
  Ki: 80.6 µM
Murine CD38 [1]; Ileum
  Ki: 79.9 µM
Murine CD38 [1]; Kidney
  Ki: 84.7 µM
Murine CD38 [1]; Liver
  Ki: 77.3 µM
Murine CD38 [1]; Lung
  Ki: 82.5 µM
Murine CD38 [1]; Skeletal muscle
  Ki: 83 µM
Murine CD38 [1]; Spleen
  Ki: 70.5 µM
Murine CD38 [2]; Brain
  Ki: 71.1 µM
Murine CD38 [2]; Heart
  Ki: 70.9 µM
Murine CD38 [2]; Ileum
  Ki: 72.1 µM
Murine CD38 [2]; Kidney
  Ki: 78.2 µM
Murine CD38 [2]; Liver
  Ki: 76.7 µM
Murine CD38 [2]; Lung
  Ki: 77 µM
Murine CD38 [2]; Skeletal muscle
  Ki: 93.3 µM
Murine CD38 [2]; Spleen
  Ki: 78.1 µM
CD38; span over all enzyme sources
  Ki: 57.1 to 93.3 µM
WT BMDMs
  Intracellular NAD+ in primed WT BMDMs treated with NMN: failed to boost intracellular NAD^+
neutrophils
  Neutrophil response to IL-8: inhibits neutrophils in response to IL-8

## O=C(O)c1nc(=O)[nH]c(=O)[nH]1 [OA, oxonic acid, reference compound]
Murine CD38 [1]; [3]
  IC50: 2200 µM
Murine CD38 [2]; [3]
  IC50: 4470 µM
